In patent US20260072027A1, “Peptides And Method” (Queen Mary University of London, priority 2022, published 2026):
Where no end group is shown, it is not given here. [ ]: non-standard residue; d: D form. Dopa = N[C@@H](Cc1ccc(O)c(O)c1)C(=O)O; Cya = N[C@@H](CS(=O)(=O)O)C(=O)O

Experiments:
serum IgG autoantibodies = test: ELISA for autoantibody detection: serum antibody binding to native and oxPTM insulin peptides; parameters: species or system human; conditions: for % binders, Healthy controls / Mean ± SEM (absorbance, OD), Healthy controls / % binders, Type 1 diabetes: Study cohort 1; for % binders, Type 1 diabetes: cut-off = mean of healthy controls to Nt-INSP plus 3 SEM; for Mean ± SEM (absorbance, OD), Type 1 diabetes: Study cohort 1 sera
Protocol: ELISA for autoantibody detection. The ELISA analysis of Nt-INS and oxPTM-INS autoantibodies was performed as previously described [18](detailed in ESM methods, ELISA assay for antibody detection).
Statistical analyses. Statistical analyses were performed using Prism Software 9.0 (GraphPad, San Diego, CA, USA). Cut-off points of positivity (binders) in the antibody ELISA for each peptide were defined by the mean of optical absorbance (O.D) of healthy controls to the corresponding Nt-INSP plus three times the standard error of the mean (SEM). Specificity and sensitivity were evaluated by receiver operating characteristic (ROC) curve analysis. Area under the curve (AUC) is reported as absolute value and was tested for equality according to DeLong et al. Differences in antibody levels and T-cell stimulation indices (SI) between groups were tested by the One way ANOVA or Student's t-tests as appropriate. Correlation analyses were tested by Pearson or Spearman's test, as appropriate. Categorical analyses were performed by Chi-square or McNemar's tests, as appropriate. For each set of experiments, p values were adjusted for multiple comparison using the Holm-Sidak's test. Hierarchical cluster and Principal Component Analysis (PCA) was done using Clustvis software (https://biit.cs.ut.ee/clustvis/) and Prism Software 9.0, respectively.
Antibody reactivity of type 1 diabetes serum against the candidate oxPTM-INSP. Identified peptide candidates were synthesised and exposed to either HOCl or ^●OH to generate oxPTM-INSPs that were first assessed by TOF-MS/ES+TIC to confirm modification (FIG. 17). Antibody response against native INSPs (Nt-INSPs) and oxPTM-INSPs was evaluated by ELISA using sera from Study cohort 1.
ESM Methods ELISA assay for antibody detection. The ELISA analysis of native (Nt-INS) and modified insulin (oxPTM-INS) was performed as previously described. Briefly, the ELISA plate was coated overnight at 4° C. with 100 μl per well of modified or native insulin in 0.05 M carbonate/bicarbonate buffer pH 9.6 at 10 μg/ml. The next day, the plates were washed 3 times with 0.1% Tween PBS, followed by blocking for 2 hours at room temperature with 200 μl per well of 5% BSA in 0.1% Tween PBS. After washing, 100 μl of 1:200-diluted serum samples in 5% BSA-0.1% Tween PBS were added for additional 2 hours incubation. ELISA plates were then washed 3 times with 0.1% Tween PBS followed by probing with anti-human IgG horse radish peroxidase conjugated (HRP, Sigma) at 1:1,000 dilution in 5% BSA-0.1% Tween PBS for another 1.5 hours incubation. The ELISA plates were washed, and 100 μg/ml TMB substrate in 0.1M sodium acetate pH 6.0 plus 2 μl/10 ml of H2O2, were added. Subsequently, the reaction was stopped with 20% v/v sulphuric acid. The optical density (O.D.) was measured at 450 nm using a GENios plate reader and Magellan software (TECAN, Dorset, UK).

[1] = tested on: autoantibodies to oxPTM-INS; test: Competitive displacement ELISA, plate coated with oxidised insulin; format: binding, human
Protocol: A competitive displacement assay was performed to map the exact epitope, namely the exact amino acid sequence binding specificities and to test the binding to native peptides versus oxidised insulin peptides. The binding to the peptide was done by direct ELISA on the native or modified peptides or by competition ELISA. Initially native synthetic peptide was oxidised by exposing to 0.05 mM CuCl2; 90 mM H2O2; 10 mM NaOCl. Native and modified peptides were fractionated by AKTA to evaluated changes in molecular profile. AKTA fractions were then tested by ELISA for reactivity (FIGS. 2 and 3). We next perform competition ELISA with the native peptides and peptides exposed to 0.05 mM CuCl2; 90 mM H2O2; 10 mM NaOCl. Serum samples were pre-incubated with either native insulin peptides or oxidised insulin peptides. Finally, based on the amino acid sequence of the identified peptides we predicted the amino acids that would be oxidised by ^●OH and HOCl and designed synthetic peptides that contain the oxidised amino acids in the synthesis. Synthetic peptides were produced by standard commercially available methods, specifically by Peptide Protein Research Ltd. Briefly, peptide synthesis was performed by automated solid phase peptide synthesis (SPPS), which was followed by purification. Each individual amino acid was added to the growing chain according to the sequence. Where specified, dihydroxyphenylalanine was added to replace Tyr or cysteate were added to replace Cys. Similarly, these peptides were tested by competition ELISA. The table below describe the different competition ELISA performed:
Serum samples from children with type 1 diabetes were pre-incubated with the synthetic peptides before they were added to the native insulin or oxidised that were previously coated on the ELISA plate. If the antibodies in the serum sample bind to the peptide they will no longer bind to the insulin or oxidised insulin on the plate-competition ELISA. 1:200 dilutions of serum samples from T1D serum samples were pre-incubated for 2 hr at room temperature with the various peptides as shown in the table above. After incubation, serum/peptide mix was added to the ELISA plate previously coated overnight with either native insulin or oxidised insulin for an additional 2 hr incubation. Plates were then washed in a plate washer three times with PBS 0.05% tween. After washing, 100 ul of anti-human IgG diluted 1:1000 in 1% milk-PBS 0.05% tween were added for additional 1 hour and 30 min incubation. After washing, ELISA was developed by adding 100 ul of TMB (10 mg/ml in DMSO) in 10 ml of 0.1 M sodium acetate plus 2 ul of H2O2. Reaction was stopped by adding 0.5 M H2SO4 (usually 20 min for insulin ELISA).
To assess the binding specificity of serum samples to identified peptides, a competitive ELISA was performed. The ELISA was carried out following the method described above, except that the serum samples were pre-incubated for 2 h with and without 10 μg/ml peptides as competitors, before adding the serum samples to the insulin coated ELISA plate.

CD4+ T-cells (PBMCs) = test: In vitro peptide stimulation and T-cell proliferation assay, CD4+; format: cell-based, human
Description: (§1) In vitro peptide stimulation and T-cell proliferation assay. Peripheral blood mononuclear cells (PBMCs) were freshly isolated from type 1 diabetes and healthy individuals using Ficoll-Hypaque density gradient centrifugation. PBMCs were labelled with the fluorescent dye CellTrace Violet (Invitrogen, Thermo Fisher Scientific) and cultured (2×10^5 cells/well) in round-bottom 96-well plates (Falcon, Becton Dickinson) with RPMI-1640 medium (Gibco, Thermo Fisher Scientific) supplemented with 5% autologous plasma in the presence or not of insulin peptides (20 μg/ml); PPD (10 μg/ml) and anti-CD3 (0.1 μg/ml; clone OKT3) were used as positive control. Two scrambled peptides: […] (SEQ ID NO: 17), […] (SEQ ID NO: 18), and the Exendin 9-39 fragment were used as negative controls. After 7 days, PBMCs were stained with PE-Cy7 anti-CD8 (clone RPA-T8, BD Pharmingen) and FITC anti-CD3 (clone UCHT1, BD Pharmingen). Samples were analysed by using a FACSCanto II (BD Bioscience) to evaluate T-cell proliferation measured as CellTrace Violet dilution. Cytofluorimetric analyses were performed using FlowJo Software (FlowJo, LLC). The results were given as stimulation index (SI), calculated as percentage of stimulated T-cell subset proliferation/percentage of unstimulated T-cell subset proliferation. Assay for detection of peptide specific T cells subsets was done as previously described (detailed in ESM methods, Assay for detection of peptide specific T cells)
(§2) T-cell stimulation with oxPTM-INSPs. To evaluate the immune cell response against the oxPTM-INSPs, we performed CD4+ and CD8+ T cells proliferation experiments using freshly isolated PBMCs (Study cohort 2, Table 1). Response was calculated as stimulatory index (SI) over unstimulated T-cells.

CD8+ T-cells (PBMCs) = test: In vitro peptide stimulation and T-cell proliferation assay, CD8+; format: cell-based, human
Description: as §1, §2

Row | Substance | % binders, Healthy controls (serum IgG autoantibodies; in silico modifications) | Mean ± SEM (absorbance, OD), Healthy controls (serum IgG autoantibodies; in silico modifications) | % binders, Type 1 diabetes (serum IgG autoantibodies; in silico modifications) | Mean ± SEM (absorbance, OD), Type 1 diabetes (serum IgG autoantibodies; in silico modifications) | CD4+ T-cell response, subjects with SI > 1 (%) (CD4+ T-cells (PBMCs); Controls (N = 11)) | CD4+ T-cell response, subjects with SI > 3 (%) (CD4+ T-cells (PBMCs); Controls (N = 11)) | CD4+ T-cell response, subjects with SI > 5 (%) (CD4+ T-cells (PBMCs); Controls (N = 11)) | CD4+ T-cell response, subjects with SI > 10 (%) (CD4+ T-cells (PBMCs); Controls (N = 11)) | CD4+ T-cell response, subjects with SI > 1 (%) (CD4+ T-cells (PBMCs); Type 1 diabetes (N = 18)) | CD4+ T-cell response, subjects with SI > 3 (%) (CD4+ T-cells (PBMCs); Type 1 diabetes (N = 18)) | CD4+ T-cell response, subjects with SI > 5 (%) (CD4+ T-cells (PBMCs); Type 1 diabetes (N = 18)) | CD4+ T-cell response, subjects with SI > 10 (%) (CD4+ T-cells (PBMCs); Type 1 diabetes (N = 18)) | CD8+ T-cell response, subjects with SI > 1 (%) (CD8+ T-cells (PBMCs); Controls (N = 11)) | CD8+ T-cell response, subjects with SI > 3 (%) (CD8+ T-cells (PBMCs); Controls (N = 11)) | CD8+ T-cell response, subjects with SI > 5 (%) (CD8+ T-cells (PBMCs); Controls (N = 11)) | CD8+ T-cell response, subjects with SI > 10 (%) (CD8+ T-cells (PBMCs); Controls (N = 11)) | CD8+ T-cell response, subjects with SI > 1 (%) (CD8+ T-cells (PBMCs); Type 1 diabetes (N = 18)) | CD8+ T-cell response, subjects with SI > 3 (%) (CD8+ T-cells (PBMCs); Type 1 diabetes (N = 18)) | CD8+ T-cell response, subjects with SI > 5 (%) (CD8+ T-cells (PBMCs); Type 1 diabetes (N = 18)) | CD8+ T-cell response, subjects with SI > 10 (%) (CD8+ T-cells (PBMCs); Type 1 diabetes (N = 18)) | further results
1 | ERGFFYTPKT (Ac-ERGFFYTPKT) [insulin B:21-30 native peptide] | 16% | 0.263 ± 0.020 | 63% | 0.423 ± 0.012 | – | – | – | – | – | – | – | – | – | – | – | – | – | – | – | – | % binders, Healthy controls (serum IgG autoantibodies; in house modifications): 10%; Mean ± SEM (absorbance, OD), Healthy controls (serum IgG autoantibodies; in house modifications): 0.263 ± 0.023; % binders, Type 1 diabetes (serum IgG autoantibodies; in house modifications): 66%; Mean ± SEM (absorbance, OD), Type 1 diabetes (serum IgG autoantibodies; in house modifications): 0.435 ± 0.014; reduced binding to oxidised whole insulin ([1]; type 1 diabetes sera pre-incubated with peptide): 35-70%
2 | ERGYYYTPKTR (Ac-ERGYYYTPKTR) [oxPTM-INSP-6 version with a C-terminal arginine] | 48% | 0.423 ± 0.039 | 88% | 0.697 ± 0.058 | (63.6%) | (27.3%) | (0.0%) | (0.0%) | (72.2%) | (38.9%) | (15.8%) | (16.7%) | (18.2%) | (9.10%) | (9.1%) | (9.1%) | (55.6%) | (16.7%) | (16.7%) | (16.7%) | –
3 | Nt-INSP-6: native insulin peptide 6; printed as ERGFFYTPKT (SEQ ID NO: 5) and, in Tables 5 and 6, ERGFFYTPKTR (SEQ ID NO: 8) | – | – | – | – | – | – | – | – | – | 27.8% | – | – | – | – | – | – | – | – | – | – | type 1 diabetes binders (IgG autoantibody reactivity) (serum IgG autoantibodies; Study cohort 2, N = 18): none; inhibition of type 1 diabetes serum binding to oxPTM-INS (in words) ([1]; sera pre-incubated with peptide competitor): not
4 | SL-DOPA-QLEN-DOPA-Cysteate-N (SL[Dopa]QLEN[Dopa][Cya]N) [in silico designed oxPTM-INSP-3 derivative] | 30% | 0.169 ± 0.008 | 57% | 0.256 ± 0.018 | (27.3%) | (0.0%) | (0.0%) | (0.0%) | (66.7%) | (5.6%) | (0.0%) | (0.0%) | (18.2%) | (9.10%) | (0.0%) | (0.0%) | (33.3%) | (16.7%) | (5.5%) | (5.6%) | –
5 | SL-DOPA-QLENY-Cysteate-N (SL[Dopa]QLENY[Cya]N) [in silico designed oxPTM-INSP-3 derivative] | 17% | 0.154 ± 0.006 | 54% | 0.228 ± 0.016 | (54.5%) | (18.2%) | (18.2%) | (0.0%) | (50.0%) | (16.7%) | (10.5%) | (5.6%) | (36.4%) | (27.3%) | (27.3%) | (18.2%) | (44.4%) | (27.8%) | (16.7%) | (5.6%) | –
